Drawing on patent US20220220128A1, “HETEROCYCLIC COMPOUNDS AS KINASE INHIBITORS, COMPOSITIONS COMPRISING THE HETEROCYCLIC COMPOUND, AND METHODS OF USE THEREOF” (JS Innopharm (Shanghai) Ltd, priority 2019, published 2022), this text covers IC50 and GI50 for 19 compounds.

Molecules are shown by their SMILES.

As a reminder, the IC50 is the concentration at which inhibition is half-maximal. A low value points to inhibition by little substance.

One test deals with T1, human RET kinase (Homo sapiens, UniProt P07949).
T1 construct: purchased Carna 08-159
Kind of test: RET Kinase Assay (LanthaScreen TR-FRET enzymatic assay). Format: biochemical. Conditions: 7 nM RET, 23 μM ATP. In a few lines: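 Human RET (7 nM) preincubated 15 min with compound in 50 mM HEPES pH 7.5, 0.0015% Brij-35, then reacted with 3 μM FAM-P2 peptide and 23 μM ATP for 1 h at 28° C.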

The next test concerns the target T2, human KDR kinase (Homo sapiens, UniProt P35968).
T2 construct: purchased Carna 08-191
Put plainly: KDR Kinase Assay (LanthaScreen TR-FRET enzymatic assay). Format: biochemical. Conditions: 1.2 nM KDR, 92 μM ATP. Summed up: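 Recombinant human KDR (1.2 nM) preincubated 15 min at room temperature with compound, then reacted with 3 μM FAM-P22 peptide and 92 μM ATP in 50 mM HEPES pH 7.5 for 1 h at 28° C. EDTA stop, then TR-FRET acceptor/donor ratio read; percent of 1% DMSO control fitted sigmoidally for IC50.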
A general note: In TR-FRET formats the signal depends on donor and acceptor labels being close together.

For the next test, the target named is T3, BAF3-KIF5B-RET cells (Homo sapiens, UniProt P07949).
T3 construct: fused on or other part: P33176 (Kinesin-1 heavy chain)
Kind of test: BAF3-KIF5B-RET Cell proliferation assay (CellTiter-Glo, 72 hours). It is filed as cell-based. Conditions: growth inhibition, read-out: BA/F3-KIF5B-RET Cellular activity. Summed up:
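Cells seeded at 2,000/well in RPMI-1640 with 10% FBS and left 24 h at 37 °C, then exposed 72 h to nine compound levels (final 1 μM down to 0.00015 μM, 0.1% DMSO). CellTiter-Glo luminescence gave viability versus DMSO wells, from which IC50 was fitted.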
For orientation: Cellular ATP, detected with luciferase, serves as a proxy for viable cell number.

T2 sequence (P35968 20-1356): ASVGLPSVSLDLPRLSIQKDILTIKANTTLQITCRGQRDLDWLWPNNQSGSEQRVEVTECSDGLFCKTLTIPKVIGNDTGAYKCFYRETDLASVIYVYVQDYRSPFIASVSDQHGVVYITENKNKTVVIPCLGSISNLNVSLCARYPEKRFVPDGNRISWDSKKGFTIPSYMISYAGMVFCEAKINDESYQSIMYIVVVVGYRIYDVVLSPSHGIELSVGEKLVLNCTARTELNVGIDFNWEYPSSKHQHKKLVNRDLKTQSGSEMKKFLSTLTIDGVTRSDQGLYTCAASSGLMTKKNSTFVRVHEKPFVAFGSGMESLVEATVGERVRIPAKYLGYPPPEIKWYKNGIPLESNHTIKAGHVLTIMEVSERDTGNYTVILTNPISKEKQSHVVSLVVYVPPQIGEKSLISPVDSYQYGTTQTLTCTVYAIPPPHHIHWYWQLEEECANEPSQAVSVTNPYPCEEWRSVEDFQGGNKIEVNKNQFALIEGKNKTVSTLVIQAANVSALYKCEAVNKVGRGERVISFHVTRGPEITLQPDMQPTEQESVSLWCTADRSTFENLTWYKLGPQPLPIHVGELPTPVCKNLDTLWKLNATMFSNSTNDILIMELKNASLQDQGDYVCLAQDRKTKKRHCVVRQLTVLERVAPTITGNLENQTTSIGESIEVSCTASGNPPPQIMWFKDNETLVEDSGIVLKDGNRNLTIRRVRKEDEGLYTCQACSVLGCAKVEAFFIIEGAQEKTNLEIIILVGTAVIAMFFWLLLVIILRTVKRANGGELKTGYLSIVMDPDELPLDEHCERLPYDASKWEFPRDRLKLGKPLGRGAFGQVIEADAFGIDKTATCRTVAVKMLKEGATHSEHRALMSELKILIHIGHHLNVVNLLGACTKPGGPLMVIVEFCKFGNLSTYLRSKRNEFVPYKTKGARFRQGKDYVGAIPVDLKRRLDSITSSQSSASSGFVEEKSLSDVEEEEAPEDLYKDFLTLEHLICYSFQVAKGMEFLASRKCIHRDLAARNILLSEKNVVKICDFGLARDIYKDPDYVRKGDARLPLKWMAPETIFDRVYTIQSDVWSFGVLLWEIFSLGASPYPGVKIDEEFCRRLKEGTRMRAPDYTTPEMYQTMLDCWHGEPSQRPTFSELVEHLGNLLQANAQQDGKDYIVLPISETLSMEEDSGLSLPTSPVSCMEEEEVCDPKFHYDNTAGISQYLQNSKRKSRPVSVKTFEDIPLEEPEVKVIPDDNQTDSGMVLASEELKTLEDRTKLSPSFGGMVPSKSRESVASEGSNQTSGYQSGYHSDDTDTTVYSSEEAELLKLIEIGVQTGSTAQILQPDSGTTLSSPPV
T1 sequence (P07949 29-1114): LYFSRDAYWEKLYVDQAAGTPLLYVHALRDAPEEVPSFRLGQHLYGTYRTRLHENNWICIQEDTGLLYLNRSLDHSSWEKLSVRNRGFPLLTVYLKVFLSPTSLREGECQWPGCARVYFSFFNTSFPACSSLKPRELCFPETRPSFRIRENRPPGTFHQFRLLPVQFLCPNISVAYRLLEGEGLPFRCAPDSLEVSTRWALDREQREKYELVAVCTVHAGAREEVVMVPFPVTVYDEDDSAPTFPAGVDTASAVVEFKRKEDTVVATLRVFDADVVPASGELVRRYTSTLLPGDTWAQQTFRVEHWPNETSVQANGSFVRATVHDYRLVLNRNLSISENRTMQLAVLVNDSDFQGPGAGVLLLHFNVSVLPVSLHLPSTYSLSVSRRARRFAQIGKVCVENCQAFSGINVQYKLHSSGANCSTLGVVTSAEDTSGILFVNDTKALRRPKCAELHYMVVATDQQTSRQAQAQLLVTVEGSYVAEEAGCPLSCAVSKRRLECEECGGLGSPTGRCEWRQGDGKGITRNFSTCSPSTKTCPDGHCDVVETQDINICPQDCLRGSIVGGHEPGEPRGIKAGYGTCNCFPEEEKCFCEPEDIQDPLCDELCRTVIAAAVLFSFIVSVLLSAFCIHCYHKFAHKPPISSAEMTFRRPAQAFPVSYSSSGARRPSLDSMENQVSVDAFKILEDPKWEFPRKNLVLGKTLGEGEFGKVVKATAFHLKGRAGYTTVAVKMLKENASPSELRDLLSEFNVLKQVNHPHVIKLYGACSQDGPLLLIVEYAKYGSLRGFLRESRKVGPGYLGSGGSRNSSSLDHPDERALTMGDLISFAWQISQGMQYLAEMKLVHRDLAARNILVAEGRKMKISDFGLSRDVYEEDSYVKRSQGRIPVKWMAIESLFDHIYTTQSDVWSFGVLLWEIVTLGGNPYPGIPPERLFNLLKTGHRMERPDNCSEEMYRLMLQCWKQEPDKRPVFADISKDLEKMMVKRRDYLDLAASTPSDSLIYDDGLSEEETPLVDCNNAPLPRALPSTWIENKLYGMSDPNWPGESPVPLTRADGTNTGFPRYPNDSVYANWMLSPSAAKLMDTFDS
T3 sequence (P07949 whole entry, change not shown, the tested form may be a part): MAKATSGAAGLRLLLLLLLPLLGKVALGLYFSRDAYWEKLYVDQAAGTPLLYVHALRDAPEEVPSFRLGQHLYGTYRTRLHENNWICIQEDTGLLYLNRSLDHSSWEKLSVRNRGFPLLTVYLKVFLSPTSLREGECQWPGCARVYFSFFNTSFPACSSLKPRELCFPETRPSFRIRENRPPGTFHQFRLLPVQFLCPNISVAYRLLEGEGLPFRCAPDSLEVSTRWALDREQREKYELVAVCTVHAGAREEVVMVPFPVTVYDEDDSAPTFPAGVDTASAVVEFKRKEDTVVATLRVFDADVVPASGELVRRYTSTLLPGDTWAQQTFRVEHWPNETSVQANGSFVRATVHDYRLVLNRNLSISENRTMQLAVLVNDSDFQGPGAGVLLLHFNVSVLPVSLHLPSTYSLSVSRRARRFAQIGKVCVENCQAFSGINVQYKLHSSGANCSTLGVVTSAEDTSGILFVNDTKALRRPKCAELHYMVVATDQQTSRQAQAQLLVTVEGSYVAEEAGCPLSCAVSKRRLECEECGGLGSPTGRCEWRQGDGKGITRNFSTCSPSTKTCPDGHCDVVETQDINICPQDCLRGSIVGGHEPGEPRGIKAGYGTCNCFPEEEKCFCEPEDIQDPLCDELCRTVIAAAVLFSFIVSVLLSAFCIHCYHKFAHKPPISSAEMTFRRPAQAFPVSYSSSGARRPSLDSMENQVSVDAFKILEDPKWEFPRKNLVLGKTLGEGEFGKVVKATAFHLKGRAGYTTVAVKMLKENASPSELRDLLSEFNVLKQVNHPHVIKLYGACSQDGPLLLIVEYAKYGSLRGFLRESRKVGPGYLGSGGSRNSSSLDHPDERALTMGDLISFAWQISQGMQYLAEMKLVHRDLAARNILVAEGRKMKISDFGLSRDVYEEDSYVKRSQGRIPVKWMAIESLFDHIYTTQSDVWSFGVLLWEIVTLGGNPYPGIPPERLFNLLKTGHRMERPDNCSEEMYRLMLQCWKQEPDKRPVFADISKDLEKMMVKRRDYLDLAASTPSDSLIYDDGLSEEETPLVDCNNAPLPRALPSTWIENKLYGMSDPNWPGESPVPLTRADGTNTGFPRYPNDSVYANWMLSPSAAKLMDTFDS

With `CC(C)(O)COc1cc(-c2cnc(N3C[C@@H]4C[C@@](C)(NC(=O)c5ncccc5Cl)C[C@@H]4C3)cn2)c2c(C#N)cnn2c1` [Example 143, 3-chloro-N-((3aR,5s,6aS)-2-(5-(3-cyano-6-(2-hydroxy-2-methylpropoxy)pyrazolo[1,5-a]pyridin-4-yl)pyrazin-2-yl)-5-methyloctahydrocyclopenta[c]pyrrol-5-yl)picolinamide], the concentration for half-maximal inhibition (IC50) on human RET kinase is no more than 10 nM; on human KDR kinase it was greater than 100 nM. In addition, the GI50 at BAF3-KIF5B-RET cells fell in the range of 10 to 50 nM.
For `Cn1cc(-c2cc(-c3cnc(N4C[C@@H]5[C@H](C4)[C@H]5NC(=O)c4ncccc4Cl)cn3)c3c(C#N)cnn3c2)cn1` [Example 102, 3-chloro-N-((1R,5S,6s)-3-(5-(3-cyano-6-(1-methyl-1H-pyrazol-4-yl)pyrazolo[1,5-a]pyridin-4-yl)pyrazin-2-yl)-3-azabicyclo[3.1.0]hexan-6-yl)picolinamide], the concentration for half-maximal inhibition (IC50) is no more than 10 nM against human RET kinase and 50 to 100 nM against human KDR kinase. Also, the GI50 on BAF3-KIF5B-RET cells lay within 10 to 50 nM.
Taken in the same sequence, the figures for `Cn1cc(-c2cc(-c3cnc(N4C[C@@H]5[C@@H](CNC(=O)c6ncccc6Cl)[C@@H]5C4)cn3)c3c(C#N)cnn3c2)cn1` [Example 153, 3-chloro-N-(((1R,5S,6s)-3-(5-(3-cyano-6-(1-methyl-1H-pyrazol-4-yl)pyrazolo[1,5-a]pyridin-4-yl)pyrazin-2-yl)-3-azabicyclo[3.1.0]hexan-6-yl)methyl)picolinamide] were no more than 10 nM, 10 to 50 nM and no more than 10 nM.
Taken in the same sequence, the figures for `COc1ccc(C(=O)NC23CC4CC(C2)N(c2ccc(-c5cc(OCC(C)(C)O)cn6ncc(C#N)c56)cn2)C(C4)C3)cn1` [Example 138, N-((1R,3S,5s,7s)-2-(5-(3-cyano-6-(2-hydroxy-2-methylpropoxy)pyrazolo[1,5-a]pyridin-4-yl)pyridin-2-yl)-2-azaadamantan-5-yl)-6-methoxynicotinamide] were no more than 10 nM, no more than 10 nM and 10 to 50 nM.
In turn, `Cn1cc(-c2cc(-c3cnc(N4C5CC6CC4CC(O)(C6)C5)cn3)c3c(C#N)cnn3c2)cn1` [Example 104, 4-(5-((1R,3S,5s,7s)-5-hydroxy-2-azaadamantan-2-yl)pyrazin-2-yl)-6-(1-methyl-1H-pyrazol-4-yl)pyrazolo[1,5-a]pyridine-3-carbonitrile] gave an IC50 on human RET kinase of no more than 10 nM. Further, on BAF3-KIF5B-RET cells, the GI50 was 10 to 50 nM.
Taken in the same sequence, the figures for `COc1ccc(C(=O)N[C@@H]2C[C@@H]3CN(c4cnc(-c5cc(OCC(C)(C)O)cn6ncc(C#N)c56)cn4)C[C@@H]3C2)cn1` [Example 110, N-((3aR,5r,6aS)-2-(5-(3-cyano-6-(2-hydroxy-2-methylpropoxy)pyrazolo[1,5-a]pyridin-4-yl)pyrazin-2-yl)octahydrocyclopenta[c]pyrrol-5-yl)-6-methoxynicotinamide] were 50 to 100 nM and greater than 100 nM.
Take `CC(C)(O)COc1cc(-c2cnc(N3C[C@@H]4[C@@H](CNC(=O)c5ncccc5Cl)[C@@H]4C3)cn2)c2c(C#N)cnn2c1` [Example 103, 3-chloro-N-(((1R,5S,6s)-3-(5-(3-cyano-6-(2-hydroxy-2-methylpropoxy)pyrazolo[1,5-a]pyridin-4-yl)pyrazin-2-yl)-3-azabicyclo[3.1.0]hexan-6-yl)methyl)picolinamide]: the results for the IC50 at human RET kinase and against human KDR kinase were no more than 10 nM and greater than 100 nM, respectively. At BAF3-KIF5B-RET cells, the GI50 was 10 to 50 nM.
At human RET kinase, `CC(C)(O)COc1cc(-c2cnc(N3C4CC5CC3CC(NC(=O)c3ncccc3F)(C5)C4)cn2)c2c(C#N)cnn2c1` [Example 168, N-((1R,3S,5s,7s)-2-(5-(3-cyano-6-(2-hydroxy-2-methylpropoxy)pyrazolo[1,5-a]pyridin-4-yl)pyrazin-2-yl)-2-azaadamantan-5-yl)-3-fluoropicolinamide] yielded a 50% inhibitory concentration (IC50) of no more than 10 nM. In addition, the GI50 on BAF3-KIF5B-RET cells is 10 to 50 nM.
Taken in the same sequence, the figures for `COc1cc(C(=O)NC[C@@H]2[C@H]3CN(c4ccc(-c5cc(-c6cnn(C)c6)cn6ncc(C#N)c56)cn4)C[C@@H]23)ccn1` [Example 194, N-(((1R,5S,6s)-3-(5-(3-cyano-6-(1-methyl-1H-pyrazol-4-yl)pyrazolo[1,5-a]pyridin-4-yl)pyridin-2-yl)-3-azabicyclo[3.1.0]hexan-6-yl)methyl)-2-methoxyisonicotinamide] were no more than 10 nM and 10 to 50 nM.
Taken in the same sequence, the figures for `Cn1cc(-c2cc(-c3cnc(N4C5CC6CC4CC(N)(C6)C5)cn3)c3c(C#N)cnn3c2)cn1` [Example 108, 4-(5-((1R,3S,5s,7s)-5-amino-2-azaadamantan-2-yl)pyrazin-2-yl)-6-(1-methyl-1H-pyrazol-4-yl)pyrazolo[1,5-a]pyridine-3-carbonitrile] were no more than 10 nM and 10 to 50 nM.
Taken in the same sequence, the figures for `CC(C)(O)COc1cc(-c2cnc(N3C[C@H]4CN(Cc5ccc(C#N)nc5)C[C@H]4C3)cn2)c2c(C#N)cnn2c1` [Example 177, 4-(5-((3aR,6aS)-5-((6-cyanopyridin-3-yl)methyl)hexahydropyrrolo[3,4-c]pyrrol-2(1H)-yl)pyrazin-2-yl)-6-(2-hydroxy-2-methylpropoxy)pyrazolo[1,5-a]pyridine-3-carbonitrile] were 50 to 100 nM and greater than 100 nM.
The compound `COc1cccc(C(=O)N[C@]2(C)C[C@H]3CN(c4cnc(-c5cc(-c6cnn(C)c6)cn6ncc(C#N)c56)cn4)C[C@H]3C2)n1` [Example 146, N-((3aR,5s,6aS)-2-(5-(3-cyano-6-(1-methyl-1H-pyrazol-4-yl)pyrazolo[1,5-a]pyridin-4-yl)pyrazin-2-yl)-5-methyloctahydrocyclopenta[c]pyrrol-5-yl)-6-methoxypicolinamide] yielded an IC50 at human RET kinase of no more than 10 nM. Moreover, at BAF3-KIF5B-RET cells, the GI50 was no more than 10 nM.
Take `COc1ccc(C(=O)N[C@@H]2C[C@@H]3CN(c4ccc(-c5cc(OCC(C)(C)O)cn6ncc(C#N)c56)cn4)C[C@@H]3C2)cn1` [Example 159, N-((3aR,5r,6aS)-2-(5-(3-cyano-6-(2-hydroxy-2-methylpropoxy)pyrazolo[1,5-a]pyridin-4-yl)pyridin-2-yl)octahydrocyclopenta[c]pyrrol-5-yl)-6-methoxynicotinamide]: on human RET kinase, the IC50 fell in the range of 10 to 50 nM. For the same compound, the GI50 on BAF3-KIF5B-RET cells lay in the range of 10 to 50 nM.
Turning to `Cn1cc(-c2cc(-c3cnc(N4C5CC6CC4CC(NC(=O)c4ncccc4Cl)(C6)C5)cn3)c3c(C#N)cnn3c2)cn1` [Example 112, 3-chloro-N-((1R,3S,5s,7s)-2-(5-(3-cyano-6-(1-methyl-1H-pyrazol-4-yl)pyrazolo[1,5-a]pyridin-4-yl)pyrazin-2-yl)-2-azaadamantan-5-yl)picolinamide], the IC50 on human RET kinase was no more than 10 nM. Moreover, the GI50 on BAF3-KIF5B-RET cells is no more than 10 nM.
`COc1cncc(C(=O)N[C@]2(C)C[C@H]3CN(c4cnc(-c5cc(-c6cnn(C)c6)cn6ncc(C#N)c56)cn4)C[C@H]3C2)c1` [Example 148, N-((3aR,5s,6aS)-2-(5-(3-cyano-6-(1-methyl-1H-pyrazol-4-yl)pyrazolo[1,5-a]pyridin-4-yl)pyrazin-2-yl)-5-methyloctahydrocyclopenta[c]pyrrol-5-yl)-5-methoxynicotinamide]: the IC50 against human RET kinase is no more than 10 nM. Further, the GI50 at BAF3-KIF5B-RET cells is no more than 10 nM.
The compound `Cn1cc(-c2cc(-c3ccc(N4C[C@@H]5C[C@](C)(NC(=O)c6ncccc6Cl)C[C@@H]5C4)nc3)c3c(C#N)cnn3c2)cn1` [Example 173, 3-chloro-N-((3aR,5r,6aS)-2-(5-(3-cyano-6-(1-methyl-1H-pyrazol-4-yl)pyrazolo[1,5-a]pyridin-4-yl)pyridin-2-yl)-5-methyloctahydrocyclopenta[c]pyrrol-5-yl)picolinamide] showed an IC50 at human RET kinase of no more than 10 nM. Also, the GI50 on BAF3-KIF5B-RET cells is no more than 10 nM.
In turn, `CCOc1cc(-c2cnc(N3C4CC5CC3CC(C(=O)Nc3ccc(OC)nc3)(C5)C4)cn2)c2c(C#N)cnn2c1` [Example 170, (1R,3S,5s,7s)-2-(5-(3-cyano-6-ethoxypyrazolo[1,5-a]pyridin-4-yl)pyrazin-2-yl)-N-(6-methoxypyridin-3-yl)-2-azaadamantane-5-carboxamide] registered a half-inhibitory concentration (IC50) at human RET kinase of no more than 10 nM. The GI50 on BAF3-KIF5B-RET cells was in the range of 10 to 50 nM.
Taken in the same sequence, the figures for `COc1ccc(NC(=O)[C@@]2(C)C[C@H]3CN(c4ccc(-c5cc(OCC(C)(C)O)cn6ncc(C#N)c56)cn4)C[C@H]3C2)cn1` [Example 116, (3aR,5r,6aS)-2-(5-(3-cyano-6-(2-hydroxy-2-methylpropoxy)pyrazolo[1,5-a]pyridin-4-yl)pyridin-2-yl)-N-(6-methoxypyridin-3-yl)-5-methyloctahydrocyclopenta[c]pyrrole-5-carboxamide] were 10 to 50 nM and greater than 100 nM.
Taken in the same sequence, the figures for `CC(C)(O)COc1cc(-c2cnc(N3C[C@@H]4C[C@@](C)(NC(=O)c5c(F)cccc5Cl)C[C@@H]4C3)cn2)c2c(C#N)cnn2c1` [Example 144, 2-chloro-N-((3aR,5s,6aS)-2-(5-(3-cyano-6-(2-hydroxy-2-methylpropoxy)pyrazolo[1,5-a]pyridin-4-yl)pyrazin-2-yl)-5-methyloctahydrocyclopenta[c]pyrrol-5-yl)-6-fluorobenzainide] were no more than 10 nM and no more than 10 nM.
